# Results taken from patent US7947285B2, “Methods for preventing post endoscopic retrograde cholangiopancreatography pancreatitis” (priority 2003, dated 2011).
# Where no end group is shown, it is not given here.
# Columns and labels:
# [1] = test system: patients undergoing ERCP; assay: Pain, nausea and vomiting scores pre and post ERCP (0-10 scale); assay type: in vivo, human
# Experimental: (§1) Incidence of post-ERCP pancreatitis (sPS vs. placebo) was evaluated as the primary efficacy variable in this study. Secondary efficacy variables included incidences of post-ERCP pancreatitis in the following sub-populations: (1) cannulation of CBD; (2) sphincterotomy of CBD; (3) cannulation of pancreatic duct; (4) sphincterotomy of pancreatic duct; (5) stent insertion and removal into CBD; (6) stent insertion and removal into pancreatic duct; (7) stone extraction (basket) from CBD; (8) stone extraction (balloon) from CBD; (9) manometry of CBD; (10) manometry of pancreatic duct; (11) pain scores pre and post ERCP (0-10 scale); (12) nausea scores pre and post ERCP (0-10 scale); (13) vomiting scores pre and post ERCP (0-10 scale); (14) return to baseline activity (pre-ERCP); and (15) return to work.
# Primary and secondary efficacy variables were compared between the treatment groups using the Fisher Exact Test or Cochran-Mantel Haenszel Association Test. Adverse events and vital signs (heart rate, blood pressure) were compared between the treatment groups using the t-test. The clinical assumption on which the power calculation is based was on incidence of post-ERCP pancreatitis among all patients without pancreas divisum of 6%. In order to show a 50% reduction in the rate of post-ERCP pancreatitis with a significance of p=0.05, at a power of 80%, 749 evaluable patients per treatment group (sPS vs. placebo) were needed.
# Additional secondary efficacy analyses were performed on post-ERCP pain, nausea, and vomiting using a 0 to 10 digital scale. There were no significant differences between the treatment groups for baseline (pre procedure) pain, nausea and vomiting. There were also no significant differences in these variables post-ERCP although there was a slight numerical trend indicating less nausea for sPS ([…]).
# [2] = test system: patients undergoing ERCP; assay: Return to baseline (pre-ERCP) activity and return to work; assay type: in vivo, human
# Experimental: as §1
# Additional secondary efficacy variables assessed were return to baseline (pre-ERCP levels of activity) and the time in days to return of pre-ERCP activity levels. There was a small difference in the percentage of patients reporting return to baseline activity within the follow-up period (2 to 4 days post-ERCP) favoring the placebo group (p=0.0230) (49.78% vs. 42.09%). Interims of the mean number of days required to achieve pre-ERCP activity levels, was 0.6 (±1.0) for the sPS group and 0.7 (±0.9) for the placebo group. An attempt was made to obtain information on return to work. Relatively few data points were able to be collected, however, because a large percentage of patients were not working pre-ERCP (retired, too ill, etc.) among the 185 patients (95 in the sPS group and 90 in the placebo group) providing relevant responses for this variable, 46.32% of sPS patients and 50.00% of placebo patients reported returning to work within the follow-up period.
substance,measurement,setting,value
"synthetic porcine secretin (HSDGTFTSELSRLRDSARLQRLLQGLV-NH2; ends and bridges not checked; UniProt P63298 33-59, looked up) [SPS, synthetic form of porcine secretin, a 27 amino acid gastrointestinal peptide hormone]","Nausea post-ERCP, Mean (SD)",[1]; N = 485,0.9 (2.1) (N = 485)
same,"Pain Post-ERCP, Mean (SD)",[1]; N = 485,1.8 (3.0) (N = 485)
same,"Vomiting post-ERCP, Mean (SD)",[1]; N = 485,0.6 (1.9) (N = 485)
same,"Vomiting pre-ERCP, Mean (SD)","[1]; baseline, N = 482",0.1 (0.8) (N = 482)
same,"Nausea Pre-ERCP, Mean (SD)","[1]; baseline, N = 483",0.6 (1.7) (N = 483)
same,"Pain Pre-ERCP, Mean (SD)","[1]; baseline, N = 483",1.4 (0.6) (N = 483)
same,"Change in Vomiting, Mean (SD)","[1]; pre to post ERCP, N = 479, p 0.0776",0.5 (2.0) (N = 479)
same,"Change in Nausea, Mean (SD)","[1]; pre to post ERCP, N = 480, p 0.0284",0.3 (2.5) (N = 480)
same,"Change in Pain, Mean (SD)","[1]; pre to post ERCP, N = 480, p 0.0668",0.4 (3.4) (N = 480)
same,mean number of days required to achieve pre-ERCP activity levels,[2]; in vivo,0.6 (±1.0) days
same,percentage of patients reporting return to baseline activity,"[2]; within the follow-up period (2 to 4 days post-ERCP), p=0.0230 favoring placebo",42.09%
same,patients reported returning to work,"[2]; within the follow-up period, 95 patients in the sPS group, not significant",46.32%
